Reference: US8778966B2, “Quinolinone derivatives as PARP and tank inhibitors” (Janssen Pharmaceutica, NV, priority 2007, dated 2014)

Experiments:
[1] = test system: HCT116 cells; test: Antiproliferative activity, Alamar Blue assay, HCT116 cells; type: cell-based, human; set-up: key to HCT116 antiproliferative activity pIC50: pIC50 = -log IC50 (IC50: conc. reducing growth to 50% of control); settings: for IC50: Homo sapiens, HCT-116, HCT116 cells, read-out: HCT116 antiproliferative activity pIC50 (converted)
Method in brief: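 HCT116 cells seeded, adhered 24 h, then exposed to compound for 4 days; Alamar Blue (resazurin) added for 4 h at 37 °C, fluorescence read at 540/590 nm. Viability as % of untreated control, triplicate wells; IC50 by probit analysis, reported as pIC50.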

[2] = test system: HCT116 cells; test: Mitotic arrest assay on HCT116 cells (phospho-histone H3 Ser10); type: cell-based, human; settings: lowest active dose; for minimal effective concentration: Homo sapiens, HCT-116, HCT116 cells, read-out: Mitotic arrest HCT116 LAD (converted)
Method in brief: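 Seeded overnight, then compound-treated 6 h at 37 °C (≤0.1% DMSO); fixed, stained with Alexa Fluor 488 anti-phospho-H3 (Ser10) plus Hoechst 33342, imaged on InCell Analyzer 1000. Blank-subtracted signal divided by SD (sigma), triplicate; value is lowest dose giving sigma >5 (LAD).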

For `CCc1cc2ccc(C(C)(C#N)Cc3cccc(OCC4CC4)c3)cc2[nH]c1=O` (stereo not drawn) [Compound 67], which IC50 [1] is on record?
Its IC50 is 1580 nM.

What about the minimal effective concentration [2] of the same compound?
The minimal effective concentration was 0.316 µM.

Which IC50 [1] does the source give for `CCc1cc2ccc(C(C)(C#N)Cc3cccc(OCCCN4CCOCC4)c3)cc2[nH]c1=O` (stereo not drawn) [Compound 68] here?
The IC50 was 6310 nM.

And the minimal effective concentration [2]?
Its minimal effective concentration is 10 µM.

What does the source list for `CCc1cc2ccc(C(C)(C#N)Cc3cccc(OCCCN4CCN(C)CC4)c3)cc2[nH]c1=O` (stereo not drawn) [Compound 69]?
IC50 [1]: 7940 nM; minimal effective concentration [2]: 10 µM

Which results are given for `Cc1cc2ccc(C(C)(C#N)Cc3noc(-c4cccc(C(F)(F)F)c4)n3)cc2[nH]c1=O` (stereo not drawn) [Compound 70]?
IC50 [1]: 631 nM; minimal effective concentration [2]: 1 µM

Which IC50 [1] does the source give for `Cc1cc2ccc(C(C)(C#N)Cc3cc4ccccc4s3)cc2[nH]c1=O` (stereo not drawn) [Compound 71] here?
Its IC50 is 5010 nM.

What about the minimal effective concentration [2] of the same compound?
The minimal effective concentration was 0.316 µM.

Which results are given for `Cc1cc2ccc(C(C)(C#N)Cc3ccc(Cl)s3)cc2[nH]c1=O` (stereo not drawn) [Compound 72]?
IC50 [1]: 794 nM; minimal effective concentration [2]: 0.1 µM

What does the source list for `Cc1cc2ccc(C(C)(C#N)Cc3ccc(C(F)(F)F)o3)cc2[nH]c1=O` (stereo not drawn) [Compound 73]?
IC50 [1]: 794 nM; minimal effective concentration [2]: 0.316 µM

`Cc1cc2ccc(C(C)(C#N)Cc3cccc4cccnc34)cc2[nH]c1=O` (stereo not drawn) [Compound 74] was tested. Which IC50 [1] did it give?
Its IC50 is 501 nM.

What about the minimal effective concentration [2] of the same compound?
The minimal effective concentration was 0.316 µM.

With `Cc1cc2ccc(C(C)(C#N)Cc3nc4ccccc4s3)cc2[nH]c1=O` (stereo not drawn) [Compound 75] as the compound, how does the IC50 [1] read?
The IC50 was 126 nM.

And the minimal effective concentration [2]?
Its minimal effective concentration is 0.1 µM.

What does the source list for `Cc1cc2ccc(C(C)(C#N)Cc3ccccc3)cc2[nH]c1=O` (stereo not drawn) [Compound 76]?
IC50 [1]: 251 nM; minimal effective concentration [2]: 0.316 µM

How did the IC50 [1] turn out when `CCc1cc2ccc(C(C)(C#N)Cc3ccc(OC)c(C#N)c3)cc2[nH]c1=O` (stereo not drawn) [Compound 77] was run?
The IC50 was 1000 nM.

And the minimal effective concentration [2]?
The minimal effective concentration was 0.316 µM.

Which results are given for `CCc1cc2ccc(C(C)(C#N)Cc3cc(C)ccc3C)cc2[nH]c1=O` (stereo not drawn) [Compound 78]?
IC50 [1]: 398 nM; minimal effective concentration [2]: 0.1 µM

What does the source list for `CCc1cc2ccc(C(C)(C#N)Cc3ccc(F)c(C)c3)cc2[nH]c1=O` (stereo not drawn) [Compound 79]?
IC50 [1]: 794 nM; minimal effective concentration [2]: 0.316 µM

Which results are given for `CCc1cc2ccc(C(C)(C#N)Cc3cc(Cl)ccc3OC)cc2[nH]c1=O` (stereo not drawn) [Compound 80]?
IC50 [1]: 501 nM; minimal effective concentration [2]: 0.1 µM

`CCc1cc2ccc(C(C)(C#N)Cc3cccc(Br)c3C)cc2[nH]c1=O` (stereo not drawn) [Compound 81] was tested. Which IC50 [1] did it give?
Its IC50 is 316 nM.

What about the minimal effective concentration [2] of the same compound?
The minimal effective concentration was 0.1 µM.

`CCc1cc2ccc(C(C)(C#N)Cc3ccc(Cl)c(C(F)(F)F)c3)cc2[nH]c1=O` (stereo not drawn) [Compound 82] was tested. Which IC50 [1] did it give?
Its IC50 is 316 nM.

What about the minimal effective concentration [2] of the same compound?
The minimal effective concentration was 0.1 µM.

For `CCc1cc2ccc(C(C)(C#N)Cc3ccc(C)c(F)c3F)cc2[nH]c1=O` (stereo not drawn) [Compound 83], which IC50 [1] is on record?
The IC50 was 1000 nM.

And the minimal effective concentration [2]?
The minimal effective concentration was 0.316 µM.

Which results are given for `CCc1cc2ccc(C(C)(C#N)Cc3c(C)cccc3C)cc2[nH]c1=O` (stereo not drawn) [Compound 84]?
IC50 [1]: 2000 nM; minimal effective concentration [2]: 0.316 µM

How did the IC50 [1] turn out when `CCc1cc2ccc(C(C)(C#N)Cc3nc4ccccc4o3)cc2[nH]c1=O` (stereo not drawn) [Compound 85] was run?
The IC50 was 316 nM.

What about the minimal effective concentration [2] of the same compound?
The minimal effective concentration was 0.316 µM.

For `CCc1cc2ccc(C(C)(C#N)Cc3csc(C)n3)cc2[nH]c1=O` (stereo not drawn) [Compound 86], which IC50 [1] is on record?
The IC50 was 5010 nM.

And the minimal effective concentration [2]?
Its minimal effective concentration is 1 µM.

With `CCc1cc2ccc(C(C)(C#N)Cc3ccc4nccnc4c3)cc2[nH]c1=O` (stereo not drawn) [Compound 87] as the compound, how does the IC50 [1] read?
The IC50 was 1000 nM.

And the minimal effective concentration [2]?
Its minimal effective concentration is 0.316 µM.

`CCc1cc2ccc(C(C)(C#N)Cc3c(C)c(C)cc(C)c3C)cc2[nH]c1=O` (stereo not drawn) [Compound 88] was tested. Which IC50 [1] did it give?
The IC50 was > 10000 nM.

What about the minimal effective concentration [2] of the same compound?
The minimal effective concentration was 1 µM.

With `CCc1cc2ccc(C(C)(C#N)Cc3c(C)c(C)c(C)c(C)c3C)cc2[nH]c1=O` (stereo not drawn) [Compound 89] as the compound, how does the IC50 [1] read?
Its IC50 is > 10000 nM.

What about the minimal effective concentration [2] of the same compound?
Its minimal effective concentration is 3.16 µM.

For `CCc1cc2ccc(C(C)(C#N)Cc3cc(Cl)cc4c3OCOC4)cc2[nH]c1=O` (stereo not drawn) [Compound 90], which IC50 [1] is on record?
Its IC50 is 1000 nM.

And the minimal effective concentration [2]?
The minimal effective concentration was 0.316 µM.

Which IC50 [1] does the source give for `CCc1cc2ccc(C(C)(C#N)Cc3cc4c(cc3Cl)OCO4)cc2[nH]c1=O` (stereo not drawn) [Compound 91] here?
The IC50 was 501 nM.

And the minimal effective concentration [2]?
The minimal effective concentration was 0.1 µM.

How did the “HCT116 antiproliferative activity pIC50” value ([1]; HCT116 cells) turn out when `CCc1cc2ccc(C(C)(C#N)Cc3cc(Cl)cc4c3OCOC4)cc2[nH]c1=O` (stereo not drawn) [Compound 92] was run?
The value was 5.8.

And the Mitotic arrest HCT116 LAD ([2]; HCT116 cells, the values are: pLAD (−log M lowest active dose))?
The Mitotic arrest HCT116 LAD was 6.5.

With `CCc1cc2ccc(C(C)(C#N)Cc3nncn3C)cc2[nH]c1=O` (stereo not drawn) [Compound 93] as the compound, how does the IC50 [1] read?
The IC50 was > 10000 nM.

What about the minimal effective concentration [2] of the same compound?
Its minimal effective concentration is 1 µM.

`CCc1cc2ccc(C(C)(C#N)Cc3cccc4nnn(C)c34)cc2[nH]c1=O` (stereo not drawn) [Compound 94] was tested. Which IC50 [1] did it give?
The IC50 was 6310 nM.

And the minimal effective concentration [2]?
The minimal effective concentration was 3.16 µM.

Which results are given for `CCc1cc2ccc(C(C)(C#N)Cc3nn(C)c4ccccc34)cc2[nH]c1=O` (stereo not drawn) [Compound 95]?
IC50 [1]: 251 nM; minimal effective concentration [2]: 0.1 µM

What does the source list for `CCc1cc2ccc(C(C)(C#N)Cc3cn4ccccc4n3)cc2[nH]c1=O` (stereo not drawn) [Compound 96]?
IC50 [1]: 5010 nM; minimal effective concentration [2]: 1 µM
